Assay results: patent US12605407B2, “Methods to induce terminal differentiation in stem cells by interfering with DNA replication, methods of inducing pancreatic differentiation, and differentiated cells obtained thereof” (priority 2018, dated 2026)

Key:
[1] = system: stem cell derived beta cells; test: Stability of beta cell identity in long-term culture after removal of compound at day 27; assay type: cell-based, human
Method: The beta cell clusters were dissociated using TrypLE™ Express into single cells. Cells were fixed with 4% PFA for 10 min and followed by permeabilization at −20° C. with cold methanol for 10 min. Primary antibodies were added at a dilution of 1:100 in autoMACs Rinsing Solution (Cat. No. 130-091-222, Miltenyi Biotec) containing 0.5% BSA at 4° C. for 1 hour. Secondary antibodies were added at a dilution of 1:500 at room temperature for 1 hour. The cells were filtered with BD Falcon 12×75 mm tube with cell strainer cap (Cat. No. 352235, BD) and subsequently analyzed by flow cytometer. Data were analyzed using Flowjo software. Negative controls were performed by only adding secondary antibodies.
With APH, a high proportion of cells in the islet-like clusters were positive for C-peptide and NKX6.1, a transcription factor for maintaining the beta cell identity and functional maturation (Schaffer et al., 2013). […] Beta cells were cultured for additional 7 days until about day 34 and 30 days until about day 60 upon removal of these compounds at day 27. […] In contrast, in APH treated cells, there was no decrease in C-peptide or NKX6.1 on day 34 (FIG. 5A). […] After further culturing of the cells for extra 30 days, very few of cells in control group remained GFP expression and were positive for C-peptide.
The ability of other DNA replication inhibitors to stabilize the beta cell identity was investigated. The expressions of GFP were maintained after releasing cells from these inhibitors for 7 days until day 34. With additional 30 days of culture, the expressions of GFP were reduced in all conditions at certain levels, but the cells treated with Cis and Eto expressed higher GFP than the cells treated with APH compared to the other conditions (FIG. 5E, FIG. 5F).

[2] = system: NSG mice; test: Transplantation of treated islet-like clusters, human C-peptide in mouse serum; assay type: in vivo
Method: (§1) 8-10 weeks old male immuno-compromised mice (NOD.Cg-Prkdcscid Il2rgtm1Wj1/SzJ (NSG) from Jackson laboratories, Cat. No. 005557) were used for transplantation. For intra leg muscle transplantation, 1-2 million cells were collected and settled in tube with 50 μl Matrigel. All animal protocols were approved by the Institutional Animal Care and Use Committee in Columbia University.
(§2) The human C-peptide levels in mouse serum were measured every two weeks in the fed state. Intraperitoneal glucose tolerance test was performed by fasting overnight and injecting 2 g/kg D-glucose solution at 2 weeks after mouse beta cells were ablated with one high dose (150 mg/kg) Streptozocin (Cat. No. S0130-1G, Sigma-Aldrich). Blood was collected in heparin-coated tube at fed state, fasting and 30 min after glucose injection. Plasma were collected by centrifuging tubes at 2000 g for 15 minutes at 4° C. The supernatants were collected for C-peptide and insulin detection with Mercodia M-Plex™ ARRAY Chemiluminescent Mercodia Beta Kit. Blood glucose levels was measured at fed state, fasting and every 30 minutes after glucose injection for 2 hours.
To test the ability of aphidicolin treated islet-like clusters to regulate blood glucose levels, treated and untreated cells were grafted into NSG mice on day 27 of differentiation. After transplantation in the immunodeficient mice, the mice transplanted with APH treated cells developed higher human C-peptide starting from 2 weeks after engraftment compared to that of control mice (FIG. 7A). The increase became significant from 6 weeks after transplantation (FIG. 7B).

[3] = system: NSG mice; test: Graft growth by luciferase reporter in vivo imaging, cyst formation and graft sections
Method: as §1
A major obstacle for the therapeutic translation of stem cell products is the formation of growths, in the form of a teratoma or of a cyst. To determine growth potential of the grafted cells, growth was evaluated by monitoring the graft with a luciferase reporter using in vivo imaging. Mice were transplanted with 1-2 million APH treated cells or untreated cells. After 2 weeks of transplantation, the graft size of APH mice was small, while controls were modestly larger (FIG. 8A). […] The different growth trend of grafted cells between control and APH treated cells was evident in the bioluminescence intensity (FIG. 8C). At 22 weeks of engraftment, the size of graft in APH group was an average of 2.6-fold larger than that of 2 weeks compare to the control group which had 53.1-fold increase (FIG. 8D). Graft growth occurred in controls even in cultures with very high differentiation efficiency (greater than 60%). The increase of graft size was slower in the 3 mice transplanted with control cells with high differentiation efficiency but cystic structure still formed in three out of the three (3/3) mice (FIG. 8C, FIG. 8E).
The grafts were isolated from mice and frozen sectioned for examination. […] In control mice, the graft developed several large cystic structures and contained fewer C-peptide positive cells (FIG. 8G).

[4] = system: STZ-treated mice; test: Protection from diabetes after ablation of mouse beta cells by streptozotocin, glucose tolerance test; assay type: in vivo
Method: as §2
The ability of APH treated cells to protect mice from diabetes was determined after eliminating endogenous mouse beta cells by streptozotocin (STZ). STZ ablates mouse beta cells but is not toxic to human beta cells at the concentrations used. After STZ treatment, the blood glucose levels were monitored and grafted beta cells were challenged with high glucose to check their function. The blood glucose levels remained in the normal range over time in 3 out of 4 mice (FIG. 7E). Mice were tolerant to glucose and normalized blood glucose levels within 15 min of glucose injection (FIG. 7F). The secretion of human C-peptide and insulin decreased after fasting and increased after glucose injection (FIG. 7G).

[5] = system: stem cell derived beta cells; test: Western blotting of sorted GFP positive cells; assay type: cell-based, human; conditions: Western Blot
Method: The sorted GFP positive and negative cells with and without cell cycle inhibitor (e.g., APH) treatment were lysed with RIPA buffer. Protein was quantified with Pierce BCA protein assay kit. 20 ug of protein was loaded on 4-20% Mini-PROTEAN TGS Precast Protein Gels (Cat. No. 4561094, Bio-Rad) from each condition and ran at 100 V for 1 hour followed by transferring protein on PVDF membrane. The membrane was blocked with 3% BSA in TBST for 1 hour at RT, incubate with primary antibodies diluted in TBST with 3% BSA overnight on a shaker. After washing with TBST, the membrane was incubated with secondary antibodies diluted in TBST with 3% non-fat dry milk powder for 1 hour at room temperature. The image was taken using ChemiDoc Imaging Systems (Bio-Rad).
Insulin positive cells were isolated based on GFP expression and the expressions of genes related to the maturation of beta cells including PDX1, NKX6.1, MAFA and insulin were evaluated (FIG. 6A). […] In addition, the C-peptide secretion was increased 2-6-fold, with an average of 3-fold, in response to high levels of glucose (FIG. 6D).

[6] = isolated grafts, frozen sections

## C[C@@]1(CO)[C@H](O)CC[C@@]2(C)[C@H]1CC[C@H]1C[C@@H]3C[C@@]12CC[C@]3(O)CO [APH, Aphidicolin]
[1]; after 7 days of releasing cells from APH (day 34)
  percentage of C-peptide positive cells, and C-peptide and NKX6.1 double positive cells, relative to day 27 before releasing: comparable
[1]; day 34, APH removed on day 27
  C-peptide or NKX6.1: no decrease
[1]; day 60
  number of GFP and C-peptide positive cells compared to day 27 before removal: decreased
[1]; day 60, APH treatment days 15-27
  percentage of C-peptide positive cells: about 34%
[2]; after glucose injection
  secretion of human C-peptide in mice: increased
[2]; from 6 weeks after transplantation
  increase of human C-peptide versus control mice, significance: significant
[2]; mice transplanted with APH treated cells, starting from 2 weeks after engraftment
  human C-peptide compared to control mice: higher
[2]; when mice were fasted
  secretion of human C-peptide in mice: downregulated
[3]; 2 weeks of transplantation, 1-2 million APH treated cells
  graft size: small
[3]; 22 weeks of engraftment
  size of graft relative to 2 weeks, average (bioluminescence): 2.6 fold
[3]; eleven weeks later (13 weeks post transplantation)
  graft size relative to graft at 2 weeks: remained the similar size
[3]; four out of the four (4/4) mice
  cysts in mice grafted with APH treated cells: No cysts
[3]; [6]
  MAFA staining of insulin expressing beta cells in graft: positive for MAFA
  graft composition: islet like structures
[4]; after STZ treatment, mice transplanted with APH treated cells
  mice whose blood glucose levels remained in the normal range over time: 3 out of 4
[4]; after fasting
  secretion of human C-peptide and insulin: decreased
[4]; after glucose injection
  secretion of human C-peptide and insulin: increased
[4]; glucose tolerance test, STZ-treated mice
  time to normalized blood glucose levels after glucose injection: ≤ 15 min
[5]
  expression of MAFA at the translational level: increased expression
  expression of NKX6.1 at the translational level: increased expression
  expression of PDX1 at the translational level: increased expression
  expression of insulin at the translational level: increased expression
